Results taken from US7786176B2, “Vaginal treatment composition containing xylitol” (Kimberly-Clark Worldwide, Inc., priority 2005, dated 2010).
Entries after “also recorded” stand apart in the source; their conditions may differ.

Experiments:
Assay type in all cases: cell-based
[1] = test system: Gardnerella vaginalis; test: Gardnerella vaginalis optical density with sugars and sugar derivatives (Example 15); details: 24 hours; 1.0% (wt/vol), FIG. 12
Procedure: A growth medium for Gardnerella vaginalis was prepared according to the manufacturer's instructions, and the pH of this medium was adjusted to pH 6.0 using 1 N HCl. D-ribose (99%, Calbiochem), D-arabinose (98%, Alfa Aesar), D-xylose (Aldrich), D-lyxose (99%, Avovado), D-arabitol (97%, Alfa Aesar), adonitol (99%, Alfa Aesar), xylitol (99%, Alfa Aesar), xylitol (98%, Danisco), and xylitol (98%, Aldrich) were then dissolved into the growth medium at a concentration of 1.0% (wt/vol). 0.9 milliliters of the culture medium was also added into a different culture tube as a control. Thereafter, 0.1 milliliter of Gardnerella vaginalis culture suspension (concentration of 1×10^6/milliliter) was added to each of the culture tubes, and then incubated overnight at 37° C., and the optical density was then measured after 24 hours at a wavelength of 595 nanometers. This was accomplished by pipetting 100 microliters of the control or sample solutions into 96-well microplates, and then using a ThermoMax Microplate Reader from Molecular Devices of Sunnyvale, Calif. to obtain the optical density readings. The results are depicted in FIG. 12.

[2] = test system: Gardnerella vaginalis; test: Zone of inhibition on agar plates, Gardnerella vaginalis (Examples 8, 11)
Procedure: (§1) A microorganism culture of 10^5 cfu (colony forming units)/ml in a 1× phosphate buffered saline (PBS) solution (diluted from 10×PBS LIQUID CONCENTRATE from VWR Cat. No. EM-6507] was used. One milliliter of the solution was plated on proper agar plates, depending on which microorganism was being tested. The agar plates were incubated at 35° C. for 4 hours. Three 4-millimeter diameter wells were then punched in each agar plate. A test sample of 100 microliters of 5% xylitol in sterilized 2-N-morpholino ethane sulfonic buffer (0.1 M 2-[morpholino]-ethanesulfonic acid, 0.9% NaCl, pH 4.7, prepared from BupH™ MES Buffer Saline Pack from Cat. No. 28390, Pierce Biotechnology, Inc., Rockford, Ill.) was added to one well of each plate. Into each of the other two wells were added MES buffer and 1% benzyl quats (diluted from BARDAC.® 205M, from Lonza Inc., Fair Lawn, N.J.) as negative and positive controls, respectively. The plates were incubated overnight at 35° C.
(§2) The following day, the “zone of inhibition” for each sample was then measured for Gardnerella vaginalis and Lactobacillus acidophilus activity. The “zone of inhibition” is a circular zone formed around the agar plate in which the growth of the microorganism is inhibited. […] However, when growth is inhibited, a clear zone is observed. The diameter of this clear zone may thus be used as an indicator of antimicrobial effectiveness.
(§3) Sorbitol, glucose, and xylitol were tested as described in Example 8.

[3] = test system: Lactobacillus acidophilus; test: Plate count after 6 hours treatment, Lactobacillus acidophilus (Example 10); details: 1% and 5% xylitol
Procedure: (§4) Test compounds were dissolved in culture media to form a suspension. Control or xylitol solutions (0.9 milliliters) were filtered and added into culture tubes. To these solutions, 0.1 milliliter of the Gardnerella vaginalis or Lactobacillus acidophilus suspension was then added at a concentration of around 10^6 cfu/milliliter. The culture tubes were incubated at 37° C. for 6 hours. The samples in the culture tubes were then diluted at 1, 10 and 100 times, and 100 microliters of each dilution was plated onto agar plates with WASP (Whitely Automatic Spiral Plate) spiral plating equipment from Don Whitely Scientific Limited, USA. The plates were incubated overnight at 35° C., and the numbers of colonies were counted on each plate by either ProtoCol® from Synbiosis, Frederick, Md., USA Whitely Scientific Limited, USA or by hand count. The results are shown below in Tables 7-8 and in FIG. 6.

[4] = test system: Lactobacillus acidophilus; test: Zone of inhibition on agar plates, Lactobacillus acidophilus (Examples 8, 11)
Procedure: as §1, §2, §3

[5] = test system: Gardnerella vaginalis; test: Optical density growth test, Gardnerella vaginalis (Example 9); details: 2, 4, 6 and 24 hours, FIG. 5
Procedure: (§5) Test compounds were dissolved in culture media to form a suspension. Control or xylitol solutions (0.9 milliliters) were filtered and added into culture tubes, and to this was added 0.1 milliliter of either the Gardnerella vaginalis or Lactobacillus acidophilus suspension at a concentration of around 10^6 cfu/milliliter. The culture tubes were then incubated overnight at 37° C., whereafter the optical density was measured at 2, 4, 6 and 24 hours by pipetting 100 microliters of the control or sample solutions into 96-well microplates, and then using a ThermoMax Microplate Reader (Molecular Devices of Sunnyvale, Calif.) to obtain the optical density readings at 590 or 600 nm wavelengths. […] The inhibition effect remained evident throughout the 24-hour experimental period.

[6] = test system: Gardnerella vaginalis; test: Gardnerella vaginalis plate count after treatment with gel compositions (Example 6)
Procedure: Gardnerella vaginalis was obtained from the American Type Culture Collection (ATCC #14018). The culture medium was Casman's medium base (BD 229010) with 5% rabbit blood (ATCC medium 70).
Initially, eight (8) solutions were formed as set forth below in Table 4.
Samples 1-2 were prepared by dissolving the KELCOGEL® (0.07 grams) and/or xylitol (0.44 grams) into 10 milliliters of water heated to between 70° C. to 80° C. Samples 3-4 and 6 were formed by first autoclaving a gallic acid stock solution (0.75 grams of gallic acid/20 mL water), autoclaving, and then adding 200 microliters of sterile gallic acid (0.0075 grams) to each sterile solution. Sample 5 was formed by dissolving 0.44 grams of xylitol in deionized water, followed by autoclaving. Sample 7 was formed by dissolving 0.44 grams of xylitol in sterilized growth medium for Gardnerella vaginalis and then filtering. The amount of xylitol was selected to yield isotonic solutions. […]
Upon formation, 1 milliliter of each control or sample solution was then added into a culture tube, followed by the addition of 0.8 milliliters of growth medium for Gardnerella vaginalis. […] After 24 and 48 hours, the optical density was measured for each sample at wavelengths of 450 and 595 nanometers. […] The number of colonies on each plate was counted using ProtoCol® software from Synbiosis of Frederick, Md. […]

[7] = test system: Lactobacillus acidophilus; test: Optical density growth test, Lactobacillus acidophilus (Example 9); details: 2, 4, 6 and 24 hours, FIG. 7
Procedure: as §5

[8] = test system: Gardnerella vaginalis; test: Plate count after 6 hours treatment, Gardnerella vaginalis (Example 10); details: all five concentrations, 1-5%
Procedure: as §4

[9] = test system: Trichomonas vaginalis; test: Viable Trichomonas vaginalis cell count with xylitol (Example 12)
Procedure: Trichomonas vaginalis was obtained from the American Type Culture Collection (ATCC #30001). The culture medium was LYI-S-2 medium (ATCC medium 2154).
A sterile LYI-S-2 medium was prepared according to the manufacturer's instructions, and the pH of this medium was adjusted to pH 6.0 using 1 N HCl. Xylitol was then dissolved into the LYI-S-2 medium at concentrations of 0.5%, 3.0%, and 5.0% (wt/vol). 0.9 milliliters of xylitol and culture medium (as control) were also added into different culture tubes. Thereafter, 0.1 milliliter of Trichomonas vaginalis culture suspension (concentration of 1×10^6/milliliter) was added to each of the culture tubes, and then incubated at 35° C. on a 15 degree horizontal slant. The viable Trichomonas vaginalis cells in each tube were counted under a microscope after 24 and 48 hours. The above procedure was repeated four times for each concentration of xylitol and the control.

[10] = test system: Candida albicans; test: Candida albicans viable cell count with xylitol (Example 14); details: 24 hours; 1%, 2%, 3%, 4%, and 5.0% (wt/vol), FIG. 11
Procedure: A YM culture medium was prepared according to the manufacturer's instructions, and the pH of this medium was adjusted to pH 6.0 using 1 N HCl. Xylitol was then dissolved into the YM medium at concentrations of 1%, 2%, 3%, 4%, and 5.0% (wt/vol). 0.9 milliliters of the culture medium were also added into a different culture tube as a control. Thereafter, 0.1 milliliter of Candida albicans culture suspension (concentration of 1×10^6/milliliter) was added to each of the culture tubes, and then incubated at 37° C. The viable Candida albicans cells in each tube were counted under a microscope after 24 hours. The above procedure was repeated four times for each concentration and the control.

[11] = 5% in MES buffer pH 4.7, 100 microliters per well
[12] = zone of inhibition testing, concentrations as in Tables 6 and 9

Compound | Gardnerella vaginalis cell count versus control (optical density 595 nanometers) [1] | Zone of inhibition, Gardnerella vaginalis [2, 11] [mm] | Zone of inhibition, Gardnerella vaginalis ([2]; 10%) [mm] | Effect on Gardnerella vaginalis [2, 12] | Inhibition of Lactobacillus acidophilus growth [3] | Zone of inhibition, Lactobacillus acidophilus [4, 11] [mm] | Zone of inhibition, Lactobacillus acidophilus ([4]; 10%) [mm] | Effect on Lactobacillus acidophilus [4, 12] | Inhibition of Gardnerella vaginalis growth (optical density) [5] | Average Plate Count ([6]; 24-hr samples, 4.4 wt/vol % xylitol in growth medium) | Effect on Gardnerella vaginalis growth ([6]; Example 6) | Inhibition of Lactobacillus acidophilus growth (optical density) [7] | Inhibition of Gardnerella vaginalis growth compared to control [8] | Trichomonas vaginalis cell count versus control ([9]; 24 hours, 0.5%, 3.0%, and 5.0% (wt/vol), FIG. 8) | Trichomonas vaginalis cell count versus control ([9]; 48 hours, FIG. 9) | Live Trichomonas vaginalis cells ([9]; 48 hours, 3% and 5% xylitol) | Candida albicans cell count versus control [10]
O=C[C@H](O)[C@H](O)[C@H](O)CO [D-ribose] | significantly reduced |  |  |  |  |  |  |  |  |  |  |  |  |  |  |  | 
OC[C@@H](O)[C@H](O)[C@@H](O)CO [xylitol] | significantly reduced | 4 | 4 | inhibited; also recorded: inhibitory effect | did not exhibit any significant inhibition | 0 | 0 | did not affect the growth | significant inhibition | 2.40 × 10^4 | significant inhibition | did not exhibit any significant inhibition | significant inhibition | significantly reduced | even more significant inhibitory effect | No live Trichomonas vaginalis cells were observed | significantly reduced
